Read-outs that look alike come from different tables or passages of the source.
Experiments:
[1] = system: Gb3 in XF-498 cells; format: cell-based, human
Experimental: After trypsinization, cells (˜1×10^6) were washed with PBS three times, resuspended in a minimum volume, and extracted with 20 volumes of chloroform/methanol (C/M) 2:1 by vol. The extract was partitioned against water and the lower phase partitioned again against theoretical upper phase. The combined lower phase was then evaporated, saponified with 1 N NaOH in methanol and glycolipids reextracted as above . The dried lower phase was dissolved in CM 98:2 and separated by silica chromatography(32). The column was washed extensively with chloroform and glycolipid eluted in acetone/methanol (9:1 by vol.). Gb3 present was detected by tlc overlay binding with VT binding domain1 (16).
Aliquots of the glycolipid extract of human tumor samples or of tumor cell lines were separated by TLC {chloroform, methanol, water-65:25:4 (v/v/v)}. The plates were dried and blocked with 1% gelatin in water at 37° C. overnight. They were then washed three times with 50 mM TBS for 5 min and incubated with 0.1 μg/ml toxin for 1 hour at R.T. After further washing with TBS, plates were incubated with mouse monoclonal anti-VT binding domain1 antibody(33) (2 μg/ml) for VT binding domain1 followed by peroxidase-conjugated goat anti-mouse antibody . Finally, the plates were washed with TBS, and toxin binding was visualized with 4-chloro-1-naphthol peroxidase substrate. A similar plate was prepared and sprayed with orcinol for comparison of glycolipid content.

[2] = system: XF-498 cells; experiment: Morphology and growth of treated XF-498 cells; format: cell-based, human; conditions: for effect on morphology of XF-498 cells: compound alone in culture medium
Experimental: (§1) XF-498 astrocytoma, ovarian tumour and vero cell lines were cultured in media containing 2 mM sodium butyrate (or propionate or capronate for astrocytoma cells).
(§2) PPMP(1-phenyl-2-hexadecanoylamino-3-morpholino-1-propanol, Matreya Inc. , Pleasant Gap, Pa.) is a potent inhibitor of glucosylceramide synthesis (36) and thereby prevents the synthesis of most glycolipids. Experiments extablished that 27 μM PPMP was able to inhibit glycosphingolipid synthesis without inducing cell death. XF-498 astrocytoma and vero cells were then incubated at 37° C. with 27 μM PPMP in the presence and absence of 2 mM butyrate for 6-7 days.

[3] = system: XF-498 cells; experiment: Cell sensitization to VT by butyrate treatment; format: cell-based, human; conditions: for effect on XF-498 cell sensitivity to VT1 (in words): cells cultured in 2 mM propionate or capronate
Experimental: Semiconfluent cells in microtiter plates were incubated in triplicates with ten fold VT binding domain dilutions and remaining cells after 72 hr were quantitated by staining with 0.1% crystal violet and measuring the optical density at 570 nm using a microtiter plate reader (31).
as §1

[4] = system: glycosphingolipid synthesis; experiment: Inhibition of glycolipid synthesis; format: cell-based
Experimental: as §2

[5] = system: Gb3 of XF-498 cells; experiment: HPLC analysis of Gb3 fatty acid composition; format: cell-based, human; conditions: butyrate treated XF-498
[6] = system: XF-498 cells; format: cell-based, human
[7] = XF-498 cells after treatment, VT1 TLC overlay

Row | SMILES | change in slower migrating Gb3 band [1, 7] | effect on morphology of XF-498 cells [2] | effect on XF-498 cell sensitivity to VT1 (in words) [3] | effect on butyrate-induced morphological changes ([2]; PPMP in presence of butyrate) | concentration able to inhibit glycosphingolipid synthesis without inducing cell death [4] [µM] | effect on butyrate induced VT1 sensitivity of XF-498 cells ([3]; 27 μM PPMP with 2 mM butyrate, not shown) | change in slower migrating Gb3 band [1] | fatty acid content of the slow migrating Gb3 species [5] | increase in XF-498 cell sensitivity to VT1 ([3]; cells cultured in 2 mM sodium butyrate) [fold] | effect on intracellular routing of VT1 B [6]
1 | CCC(=O)O [propionate] | selectively increased, but to a lesser extent | similar, but less significant, morphological change | increased to a lesser extent |  |  |  |  |  |  | 
2 | CCCCCCCCCCCCCCCC(=O)NC(CN1CCOCC1)C(O)c1ccccc1 (stereo not drawn) [PPMP, 1-phenyl-2-hexadecanoylamino-3-morpholino-1-propanol] |  | no effect |  | prevented the butyrate-induced morphological changes | 27 | prevented |  |  |  | 
3 | CCCCCC(=O)O [capronate] |  | no effect | no effect |  |  |  | no effect |  |  | 
4 | CCCC(=O)[O-].[Na+] [butyrate, sodium butyrate] | dramatic, selective increase | profound effect |  |  |  |  |  | markedly increased C16 and decreased C24 fatty acid content | 5000 | marked change in the intracellular routing

From US6482586B1 (priority 1996, dated 2002)
